Source: patent US7671238B2, “Arylamino-arylpropanolamine derivatives and methods of their use” (Wyeth LLC, priority 2006, dated 2010)
Counter-ions that a name gives are not always drawn.

Target: T1, hNET (Homo sapiens, UniProt P23975)
T1 construct: expressed in transfected cells; host or cells: MDCK-Net6 (MDCK cells stably transfected with hNET)
Test: Norepinephrine (NE) uptake assay in MDCK-Net6 cells
Assay type: cell-based
Details: 1 μM test compound; MDCK-Net6 cells stably transfected with human hNET; [3H]NE uptake
Protocol: Cells were plated at 300,000 T75 flask and cells were split twice weekly. […] Cells were plated at 250,000 cells/T75 flask and split twice weekly.
On day 1, cells were plated at 3,000 cells/well in growth medium and maintained in a cell incubator (37° C., 5% CO2). On day 2, growth medium was replaced with […] of assay buffer (25 mM HEPES; 120 mM NaCl; 5 mM KCl; 2.5 mM CaCl2; 1.2 mM MgSO4; 2 mg/ml glucose (pH 7.4, 37° C.)) containing 0.2 mg/ml ascorbic acid and […]. Plates containing cells with […] of assay buffer were equilibrated for 10 minutes at 37° C. prior to addition of compounds. A stock solution of desipramine was prepared in DMSO (10 mM) and delivered to triplicate wells containing cells for a final test concentration of 1 μM. Data from these wells were used to define non-specific NE uptake (minimum NE uptake). Test compounds were prepared in DMSO (10 mM) and diluted in assay buffer according to test range (1 to 10,000 nM). Twenty-five microliters of assay buffer (maximum NE uptake) or test compound were added directly to triplicate wells containing cells in 200 μl of assay buffer. The cells in assay buffer with test compounds were incubated for 20 minutes at 37° C. To initiate the NE uptake, [^3H]NE diluted in assay buffer (120 nM final assay concentration) was delivered in 25 μl aliquots to each well and the plates were incubated for 5 minutes (37° C.). The reaction was terminated by decanting the supernatant from the plate. The plates containing cells were washed twice with 200 μl assay buffer (37° C.) to remove free radioligand. The plates were then inverted, left to dry for 2 minutes, then reinverted and air-dried for an additional 10 minutes. The cells were lysed in 25 μl of 0.25 N NaOH solution (4° C.), placed on a shake table and vigorously shaken for 5 minutes. After cell lysis, 75 μl of scintillation cocktail was added to each well and the plates were sealed with film tape. The plates were returned to the shake table and vigorously shaken for a minimum of 10 minutes to ensure adequate partitioning of organic and aqueous solutions. The plates were counted in a Wallac Microbeta counter (PerkinElmer) to collect the raw cpm data.
For each experiment, a data stream of cpm values collected from the Wallac Microbeta counter was downloaded to a Microsoft Excel statistical application program. Calculations of EC50 values were made using the transformed-both-sides logistic dose response program written by Wyeth Biometrics Department.

T1 sequence (P23975 whole entry): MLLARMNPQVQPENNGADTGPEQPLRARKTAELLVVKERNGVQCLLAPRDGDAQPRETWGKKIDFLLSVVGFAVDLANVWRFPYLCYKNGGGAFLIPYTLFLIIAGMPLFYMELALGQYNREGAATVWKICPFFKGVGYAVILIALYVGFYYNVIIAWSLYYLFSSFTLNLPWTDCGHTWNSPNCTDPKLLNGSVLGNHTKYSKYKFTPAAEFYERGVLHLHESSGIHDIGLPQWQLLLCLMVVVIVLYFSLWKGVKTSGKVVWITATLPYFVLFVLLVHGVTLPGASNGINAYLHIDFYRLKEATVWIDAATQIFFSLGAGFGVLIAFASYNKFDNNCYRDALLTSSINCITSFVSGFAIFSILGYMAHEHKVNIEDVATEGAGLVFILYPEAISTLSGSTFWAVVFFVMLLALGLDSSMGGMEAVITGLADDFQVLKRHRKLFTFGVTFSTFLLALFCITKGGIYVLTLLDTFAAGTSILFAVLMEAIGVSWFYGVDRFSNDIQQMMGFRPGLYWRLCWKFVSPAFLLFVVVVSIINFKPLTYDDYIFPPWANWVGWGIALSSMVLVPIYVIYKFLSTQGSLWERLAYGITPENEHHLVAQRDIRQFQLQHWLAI

Row | inhibition at 1 µM | SMILES
1 | 71% | CCNC[C@@H](O)[C@H](c1ccccc1)N(C)c1ccc(C)cc1 (racemic) [Example 28, (1RS,2SR)-3-(ethylamino)-1-[methyl(4-methylphenyl)amino]-1-phenylpropan-2-ol hydrochloride]
2 | 56% | CCNC[C@@H](O)[C@H](c1cccc(Cl)c1)N(C)c1ccccc1 (racemic) [Example 30, (1RS,2SR)-1-(3-chlorophenyl)-3-(ethylamino)-1-[methyl(phenyl)amino]propan-2-ol hydrochloride]
3 | 92% | COc1ccc([C@@H]([C@H](O)CN)N(C)c2ccc(Cl)cc2)cc1 (racemic) [Example 6, (1RS,2SR)-3-amino-1-[(4-chlorophenyl)(methyl)amino]-1-(4-methoxyphenyl)propan-2-ol hydrochloride]
4 | 99% | CNC[C@@H](O)[C@H](c1cccc(F)c1)N(C)c1ccc(Cl)cc1 (racemic) [Example 23, (1RS,2SR)-1-[(4-chlorophenyl)(methyl)amino]-1-(3-fluorophenyl)-3-(methylamino)propan-2-ol hydrochloride]
5 | 92% | CNC[C@@H](O)[C@H](c1ccc(OC)cc1)N(C)c1cccc(F)c1 (racemic) [Example 24, (1RS,2SR)-1-[(3-fluorophenyl)(methyl)amino]-1-(4-methoxyphenyl)-3-(methylamino)propan-2-ol hydrochloride]
6 | 86% | COc1cccc(N(C)[C@@H](c2ccccc2)[C@H](O)CN)c1 (racemic) [Example 4, (1RS,2SR)-3-amino-1-[(3-methoxyphenyl)(methyl)amino]-1-phenylpropan-2-ol hydrochloride]
7 | 95% | Cc1ccc(N(C)[C@@H](c2ccccc2)[C@H](O)CN(C)C)cc1 (racemic) [Example 32, (1RS,2SR)-3-(dimethylamino)-1-[methyl (4-methylphenyl)amino]-1-phenylpropan-2-ol hydrochloride]
8 | 92% | Cc1cccc(N(C)[C@@H](c2ccccc2)[C@H](O)CN)c1 (racemic) [Example 2, (1RS,2SR)-3-amino-1-[methyl(3-methylphenyl)amino]-1-phenylpropan-2-ol hydrochloride]
9 | 95% | CCNC[C@@H](O)[C@H](c1ccc(OC)cc1)N(C)c1ccc(Cl)cc1 (racemic) [Example 29, (1RS,2SR)-1-[(4-chlorophenyl)(methyl)amino]-3-(ethylamino)-1-(4-methoxyphenyl)propan-2-ol hydrochloride]
10 | 88% | CCNC[C@@H](O)[C@H](c1ccc(Cl)cc1)N(C)c1ccccc1 (racemic) [Example 31, (1RS,2SR)-1-(4-chlorophenyl)-3-(ethylamino)-1-[methyl(phenyl)amino]propan-2-ol hydrochloride]
11 | 75% | CNC[C@@H](O)[C@H](c1ccc(OC)cc1)N(C)c1ccc(OC)cc1 (racemic) [Example 26, (1RS,2SR)-1-(4-methoxyphenyl)-1-[(4-methoxyphenyl)(methyl)amino]-3-(methylamino)propan-2-ol hydrochloride]
12 | 97% | CNC[C@@H](O)[C@H](c1ccc(OC)cc1)N(C)c1ccc(Cl)cc1 (racemic) [Example 25, (1RS,2SR)-1-[(4-chlorophenyl)(methyl)amino]-1-(4-methoxyphenyl)-3-(methylamino)propan-2-ol hydrochloride]
13 | 45% | CN(c1ccccc1Cl)[C@@H](c1ccccc1)[C@H](O)CN (racemic) [Example 3, (1RS,2SR)-3-amino-1-[(2-chlorophenyl)(methyl)amino]-1-phenylpropan-2-ol hydrochloride]
